# Results as given in PubChem BioAssay (NCI).
#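 Values below derive from 48-hour exposures of cells grown in 96-well plates, with endpoints linearly interpolated between the two concentrations bracketing the appropriate inhibition level. Definition used: TGI = concentration required for complete inhibition of growth.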
# System: NCI-H226 lung
# Experiment: NCI tumour cell line growth inhibition, 48 h
row,SMILES,TGI
1,Nc1nccc(-c2c[nH]c3cc(Br)ccc23)n1,> 100 µM

# System: NCI-H23 lung
# Experiment: NCI tumour cell line growth inhibition, 48 h
row,SMILES,TGI
1,O=C(O)c1nc2nc(Cl)c(Cl)nc2[nH]1,> 100 µM
2,CN(C)CCNS(=O)(=O)c1ccc(N)cc1,> 100 µM
3,COc1ccc(N=NC(=Nc2ccccc2)c2ccc(N(CCC#N)CCC#N)cc2)cc1,> 100 µM
4,O=C(/C=C/c1ccc2c(c1)OCO2)Cc1nc2ncccc2[nH]c1=O,> 100 µM
5,CC(=O)Nc1nc(NC(C)=O)c2[nH]c(CO)nc2n1,> 100 µM
6,COC(=O)C1CC(C=[N+](C)C)=C(SC)N1C(=O)OCc1ccccc1 (centres undefined),> 100 µM
7,Nc1nccc(-c2c[nH]c3cc(Br)ccc23)n1,88.4 µM

# System: NCI-H460 lung
# Experiment: NCI tumour cell line growth inhibition, 48 h
row,SMILES,TGI
1,O=C(O)c1nc2nc(Cl)c(Cl)nc2[nH]1,> 100 µM
2,CN(C)CCNS(=O)(=O)c1ccc(N)cc1,> 100 µM
3,COc1ccc(N=NC(=Nc2ccccc2)c2ccc(N(CCC#N)CCC#N)cc2)cc1,> 100 µM
4,O=C(/C=C/c1ccc2c(c1)OCO2)Cc1nc2ncccc2[nH]c1=O,> 100 µM
5,CC(=O)Nc1nc(NC(C)=O)c2[nH]c(CO)nc2n1,> 100 µM
6,COC(=O)C1CC(C=[N+](C)C)=C(SC)N1C(=O)OCc1ccccc1 (centres undefined),> 100 µM
7,Nc1nccc(-c2c[nH]c3cc(Br)ccc23)n1,> 100 µM

# System: NCI-H522 lung
# Experiment: NCI tumour cell line growth inhibition, 48 h
row,SMILES,TGI
1,O=C(O)c1nc2nc(Cl)c(Cl)nc2[nH]1,> 100 µM
2,CN(C)CCNS(=O)(=O)c1ccc(N)cc1,> 100 µM
3,COc1ccc(N=NC(=Nc2ccccc2)c2ccc(N(CCC#N)CCC#N)cc2)cc1,69.1 µM
4,O=C(/C=C/c1ccc2c(c1)OCO2)Cc1nc2ncccc2[nH]c1=O,> 100 µM
5,CC(=O)Nc1nc(NC(C)=O)c2[nH]c(CO)nc2n1,> 100 µM
6,COC(=O)C1CC(C=[N+](C)C)=C(SC)N1C(=O)OCc1ccccc1 (centres undefined),> 100 µM
7,Nc1nccc(-c2c[nH]c3cc(Br)ccc23)n1,38.4 µM

# System: NCI/ADR-RES ovarian
# Experiment: NCI tumour cell line growth inhibition, 48 h
row,SMILES,TGI
1,O=C(O)c1nc2nc(Cl)c(Cl)nc2[nH]1,> 100 µM
2,CN(C)CCNS(=O)(=O)c1ccc(N)cc1,> 100 µM
3,COc1ccc(N=NC(=Nc2ccccc2)c2ccc(N(CCC#N)CCC#N)cc2)cc1,> 100 µM
4,O=C(/C=C/c1ccc2c(c1)OCO2)Cc1nc2ncccc2[nH]c1=O,> 100 µM
5,CC(=O)Nc1nc(NC(C)=O)c2[nH]c(CO)nc2n1,> 100 µM
6,COC(=O)C1CC(C=[N+](C)C)=C(SC)N1C(=O)OCc1ccccc1 (centres undefined),> 100 µM
7,Nc1nccc(-c2c[nH]c3cc(Br)ccc23)n1,> 100 µM

# System: OVCAR-3 ovarian
# Experiment: NCI tumour cell line growth inhibition, 48 h
row,SMILES,TGI
1,O=C(O)c1nc2nc(Cl)c(Cl)nc2[nH]1,> 100 µM
2,CN(C)CCNS(=O)(=O)c1ccc(N)cc1,31 µM
3,COc1ccc(N=NC(=Nc2ccccc2)c2ccc(N(CCC#N)CCC#N)cc2)cc1,55.2 µM
4,O=C(/C=C/c1ccc2c(c1)OCO2)Cc1nc2ncccc2[nH]c1=O,> 100 µM
5,CC(=O)Nc1nc(NC(C)=O)c2[nH]c(CO)nc2n1,> 100 µM
6,COC(=O)C1CC(C=[N+](C)C)=C(SC)N1C(=O)OCc1ccccc1 (centres undefined),> 100 µM
7,Nc1nccc(-c2c[nH]c3cc(Br)ccc23)n1,> 100 µM

# System: OVCAR-4 ovarian
# Experiment: NCI tumour cell line growth inhibition, 48 h
row,SMILES,TGI
1,O=C(O)c1nc2nc(Cl)c(Cl)nc2[nH]1,> 100 µM
2,CN(C)CCNS(=O)(=O)c1ccc(N)cc1,> 100 µM
3,COc1ccc(N=NC(=Nc2ccccc2)c2ccc(N(CCC#N)CCC#N)cc2)cc1,> 100 µM
4,CC(=O)Nc1nc(NC(C)=O)c2[nH]c(CO)nc2n1,> 100 µM
5,COC(=O)C1CC(C=[N+](C)C)=C(SC)N1C(=O)OCc1ccccc1 (centres undefined),> 100 µM
6,Nc1nccc(-c2c[nH]c3cc(Br)ccc23)n1,> 100 µM

# System: OVCAR-5 ovarian
# Experiment: NCI tumour cell line growth inhibition, 48 h
row,SMILES,TGI
1,O=C(O)c1nc2nc(Cl)c(Cl)nc2[nH]1,> 100 µM
2,CN(C)CCNS(=O)(=O)c1ccc(N)cc1,> 100 µM
3,COc1ccc(N=NC(=Nc2ccccc2)c2ccc(N(CCC#N)CCC#N)cc2)cc1,> 100 µM
4,O=C(/C=C/c1ccc2c(c1)OCO2)Cc1nc2ncccc2[nH]c1=O,> 100 µM
5,CC(=O)Nc1nc(NC(C)=O)c2[nH]c(CO)nc2n1,> 100 µM
6,COC(=O)C1CC(C=[N+](C)C)=C(SC)N1C(=O)OCc1ccccc1 (centres undefined),> 100 µM
7,Nc1nccc(-c2c[nH]c3cc(Br)ccc23)n1,49 µM

# System: OVCAR-8 ovarian
# Experiment: NCI tumour cell line growth inhibition, 48 h
row,SMILES,TGI
1,O=C(O)c1nc2nc(Cl)c(Cl)nc2[nH]1,> 100 µM
2,CN(C)CCNS(=O)(=O)c1ccc(N)cc1,> 100 µM
3,COc1ccc(N=NC(=Nc2ccccc2)c2ccc(N(CCC#N)CCC#N)cc2)cc1,> 100 µM
4,O=C(/C=C/c1ccc2c(c1)OCO2)Cc1nc2ncccc2[nH]c1=O,> 100 µM
5,CC(=O)Nc1nc(NC(C)=O)c2[nH]c(CO)nc2n1,> 100 µM
6,COC(=O)C1CC(C=[N+](C)C)=C(SC)N1C(=O)OCc1ccccc1 (centres undefined),> 100 µM
7,Nc1nccc(-c2c[nH]c3cc(Br)ccc23)n1,> 100 µM

# System: PC-3 prostate
# Experiment: NCI tumour cell line growth inhibition, 48 h
row,SMILES,TGI
1,O=C(O)c1nc2nc(Cl)c(Cl)nc2[nH]1,> 100 µM
2,CN(C)CCNS(=O)(=O)c1ccc(N)cc1,34 µM
3,COc1ccc(N=NC(=Nc2ccccc2)c2ccc(N(CCC#N)CCC#N)cc2)cc1,> 100 µM
4,O=C(/C=C/c1ccc2c(c1)OCO2)Cc1nc2ncccc2[nH]c1=O,> 100 µM
5,CC(=O)Nc1nc(NC(C)=O)c2[nH]c(CO)nc2n1,> 100 µM
6,COC(=O)C1CC(C=[N+](C)C)=C(SC)N1C(=O)OCc1ccccc1 (centres undefined),> 100 µM
7,Nc1nccc(-c2c[nH]c3cc(Br)ccc23)n1,> 100 µM

# System: RPMI-8226 leukemia
# Experiment: NCI tumour cell line growth inhibition, 48 h
row,SMILES,TGI
1,O=C(O)c1nc2nc(Cl)c(Cl)nc2[nH]1,> 100 µM
2,CN(C)CCNS(=O)(=O)c1ccc(N)cc1,> 100 µM
3,COc1ccc(N=NC(=Nc2ccccc2)c2ccc(N(CCC#N)CCC#N)cc2)cc1,> 100 µM
4,O=C(/C=C/c1ccc2c(c1)OCO2)Cc1nc2ncccc2[nH]c1=O,> 100 µM
5,COC(=O)C1CC(C=[N+](C)C)=C(SC)N1C(=O)OCc1ccccc1 (centres undefined),> 100 µM
6,Nc1nccc(-c2c[nH]c3cc(Br)ccc23)n1,49.5 µM

# System: RXF 393 renal
# Experiment: NCI tumour cell line growth inhibition, 48 h
row,SMILES,TGI
1,O=C(O)c1nc2nc(Cl)c(Cl)nc2[nH]1,> 100 µM
2,CN(C)CCNS(=O)(=O)c1ccc(N)cc1,> 100 µM
3,COc1ccc(N=NC(=Nc2ccccc2)c2ccc(N(CCC#N)CCC#N)cc2)cc1,> 100 µM
4,O=C(/C=C/c1ccc2c(c1)OCO2)Cc1nc2ncccc2[nH]c1=O,> 100 µM
5,CC(=O)Nc1nc(NC(C)=O)c2[nH]c(CO)nc2n1,> 100 µM
6,COC(=O)C1CC(C=[N+](C)C)=C(SC)N1C(=O)OCc1ccccc1 (centres undefined),> 100 µM
7,Nc1nccc(-c2c[nH]c3cc(Br)ccc23)n1,49.3 µM

# System: SF-268 CNS
# Experiment: NCI tumour cell line growth inhibition, 48 h
row,SMILES,TGI
1,O=C(O)c1nc2nc(Cl)c(Cl)nc2[nH]1,> 100 µM
2,CN(C)CCNS(=O)(=O)c1ccc(N)cc1,> 100 µM
3,COc1ccc(N=NC(=Nc2ccccc2)c2ccc(N(CCC#N)CCC#N)cc2)cc1,> 100 µM
4,O=C(/C=C/c1ccc2c(c1)OCO2)Cc1nc2ncccc2[nH]c1=O,> 100 µM
5,CC(=O)Nc1nc(NC(C)=O)c2[nH]c(CO)nc2n1,> 100 µM
6,COC(=O)C1CC(C=[N+](C)C)=C(SC)N1C(=O)OCc1ccccc1 (centres undefined),> 100 µM
7,Nc1nccc(-c2c[nH]c3cc(Br)ccc23)n1,> 100 µM

# System: SF-295 CNS
# Experiment: NCI tumour cell line growth inhibition, 48 h
row,SMILES,TGI
1,O=C(O)c1nc2nc(Cl)c(Cl)nc2[nH]1,> 100 µM
2,CN(C)CCNS(=O)(=O)c1ccc(N)cc1,> 100 µM
3,COc1ccc(N=NC(=Nc2ccccc2)c2ccc(N(CCC#N)CCC#N)cc2)cc1,> 100 µM
4,O=C(/C=C/c1ccc2c(c1)OCO2)Cc1nc2ncccc2[nH]c1=O,> 100 µM
5,CC(=O)Nc1nc(NC(C)=O)c2[nH]c(CO)nc2n1,> 100 µM
6,COC(=O)C1CC(C=[N+](C)C)=C(SC)N1C(=O)OCc1ccccc1 (centres undefined),> 100 µM
7,Nc1nccc(-c2c[nH]c3cc(Br)ccc23)n1,> 100 µM

# System: SF-539 CNS
# Experiment: NCI tumour cell line growth inhibition, 48 h
row,SMILES,TGI
1,O=C(O)c1nc2nc(Cl)c(Cl)nc2[nH]1,> 100 µM
2,CN(C)CCNS(=O)(=O)c1ccc(N)cc1,> 100 µM
3,COc1ccc(N=NC(=Nc2ccccc2)c2ccc(N(CCC#N)CCC#N)cc2)cc1,> 100 µM
4,O=C(/C=C/c1ccc2c(c1)OCO2)Cc1nc2ncccc2[nH]c1=O,> 100 µM
5,CC(=O)Nc1nc(NC(C)=O)c2[nH]c(CO)nc2n1,> 100 µM
6,Nc1nccc(-c2c[nH]c3cc(Br)ccc23)n1,> 100 µM

# System: SK-MEL-2 melanoma
# Experiment: NCI tumour cell line growth inhibition, 48 h
row,SMILES,TGI
1,O=C(O)c1nc2nc(Cl)c(Cl)nc2[nH]1,> 100 µM
2,CN(C)CCNS(=O)(=O)c1ccc(N)cc1,31.9 µM
3,COc1ccc(N=NC(=Nc2ccccc2)c2ccc(N(CCC#N)CCC#N)cc2)cc1,> 100 µM
